Values of other authors in patent US20240238439A1, “HER3-BINDING ANTIBODY-DRUG CONJUGATE” (Hummingbird Bioscience Pte. Ltd., priority 2023, published 2024).

Conditions: subset of EGFR-mutant and TKI-resistant lung cancers, and metastatic breast cancers; cited from earlier work

Patritumab-DXd
clinical responses: clinical responses have been observed
